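96-well plates; 48 h exposure; 5 concentrations. Endpoints by linear interpolation between flanking doses. Not reached: highest tested concentration assigned. Here, GI50 denotes the concentration required for 50% inhibition of growth.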 Active and inactive are the calls of the source. Cut-off read from the data, not from the text of the source: active = GI50 up to about 1.1 µM and inactive = higher.
Tests used:
Assay in all cases: NCI anticancer screen, dose series, 48 h
786-0 = system: 786-0
COLO 205 = system: COLO 205
HOP-92 = system: HOP-92
HT-29 = system: HT-29
K562 = system: K562
NCI-H522 = system: NCI-H522
OVCAR-5 = system: OVCAR-5
OVCAR-8 = system: OVCAR-8
RPMI-8226 = system: RPMI-8226
SF-268 = system: SF-268
SK-MEL-28 = system: SK-MEL-28
SK-MEL-2 = system: SK-MEL-2
SNB-75 = system: SNB-75
SR = system: SR
UACC-257 = system: UACC-257
UACC-62 = system: UACC-62
MDA-MB-435 = system: MDA-MB-435

CCOC(OCC)C(CC)[Se]c1ccccc1 (configuration not stated)
GI50 (786-0): 19.1 µM (inactive) | GI50 (COLO 205): 39.8 µM (inactive) | GI50 (HOP-92): 28.6 µM (inactive) | GI50 (HT-29): > 100 µM (inactive) | GI50 (K562): > 100 µM (inactive) | GI50 (NCI-H522): 15.6 µM (inactive) | GI50 (OVCAR-5): > 100 µM (inactive) | GI50 (OVCAR-8): > 100 µM (inactive) | GI50 (RPMI-8226): 18.3 µM (inactive) | GI50 (SF-268): 72.6 µM (inactive) | GI50 (SK-MEL-28): > 100 µM (inactive) | GI50 (SK-MEL-2): > 100 µM (inactive) | GI50 (SNB-75): 35.3 µM (inactive) | GI50 (SR): 10.1 µM (inactive) | GI50 (UACC-257): > 100 µM (inactive) | GI50 (UACC-62): > 100 µM (inactive)

COc1ccc(Br)c(N/N=C2\CCCNC2=O)c1
GI50 (786-0): > 100 µM (inactive) | GI50 (COLO 205): 48 µM (inactive) | GI50 (HOP-92): 48.9 µM (inactive) | GI50 (HT-29): > 100 µM (inactive) | GI50 (K562): > 100 µM (inactive) | GI50 (NCI-H522): 58.5 µM (inactive) | GI50 (OVCAR-5): 44.6 µM (inactive) | GI50 (OVCAR-8): > 100 µM (inactive) | GI50 (RPMI-8226): 51.5 µM (inactive) | GI50 (SK-MEL-28): > 100 µM (inactive) | GI50 (SK-MEL-2): > 100 µM (inactive) | GI50 (SNB-75): 23.1 µM (inactive) | GI50 (SR): 4.71 µM (inactive) | GI50 (UACC-257): > 100 µM (inactive) | GI50 (UACC-62): > 100 µM (inactive)

C=C1C2CCCC1C1(S(C)(=O)=O)CCCCC21O (configuration not stated)
GI50 (786-0): > 100 µM (inactive) | GI50 (COLO 205): > 100 µM (inactive) | GI50 (HOP-92): < 0.01 µM (active) | GI50 (HT-29): > 100 µM (inactive) | GI50 (K562): > 100 µM (inactive) | GI50 (NCI-H522): > 100 µM (inactive) | GI50 (OVCAR-5): > 100 µM (inactive) | GI50 (OVCAR-8): > 100 µM (inactive) | GI50 (RPMI-8226): > 100 µM (inactive) | GI50 (SK-MEL-28): > 100 µM (inactive) | GI50 (SK-MEL-2): > 100 µM (inactive) | GI50 (SNB-75): > 100 µM (inactive) | GI50 (SR): > 100 µM (inactive) | GI50 (UACC-257): > 100 µM (inactive) | GI50 (UACC-62): > 100 µM (inactive)

COc1ccc2oc3cccc(NCCN(C)C)c3c(=O)c2c1
GI50 (786-0): 10.9 µM (inactive) | GI50 (COLO 205): 5.6 µM (inactive) | GI50 (HOP-92): 13.8 µM (inactive) | GI50 (HT-29): 7.83 µM (inactive) | GI50 (K562): 9.35 µM (inactive) | GI50 (OVCAR-5): 12.3 µM (inactive) | GI50 (OVCAR-8): 11.1 µM (inactive) | GI50 (RPMI-8226): 12.6 µM (inactive) | GI50 (SF-268): 13.3 µM (inactive) | GI50 (SK-MEL-28): 18.2 µM (inactive) | GI50 (SK-MEL-2): 16.5 µM (inactive) | GI50 (SNB-75): 15.3 µM (inactive) | GI50 (SR): 8.85 µM (inactive) | GI50 (UACC-257): 16.3 µM (inactive) | GI50 (UACC-62): 12.7 µM (inactive)

Cc1cc2c(=O)cc(-c3ccc(C(=O)O)cc3)oc2c(C(=O)O)c1C
GI50 (786-0): > 100 µM (inactive) | GI50 (COLO 205): > 100 µM (inactive) | GI50 (HOP-92): > 100 µM (inactive) | GI50 (HT-29): > 100 µM (inactive) | GI50 (K562): > 100 µM (inactive) | GI50 (NCI-H522): > 100 µM (inactive) | GI50 (OVCAR-5): > 100 µM (inactive) | GI50 (OVCAR-8): > 100 µM (inactive) | GI50 (RPMI-8226): > 100 µM (inactive) | GI50 (SK-MEL-28): > 100 µM (inactive) | GI50 (SK-MEL-2): > 100 µM (inactive) | GI50 (SNB-75): > 100 µM (inactive) | GI50 (SR): > 100 µM (inactive) | GI50 (UACC-257): > 100 µM (inactive) | GI50 (UACC-62): > 100 µM (inactive)

C[C@]12CCC[C@H](O)[C@H]1C[C@H](CO)CC2
GI50 (786-0): > 100 µM (inactive) | GI50 (COLO 205): > 100 µM (inactive) | GI50 (HOP-92): > 100 µM (inactive) | GI50 (HT-29): > 100 µM (inactive) | GI50 (K562): > 100 µM (inactive) | GI50 (NCI-H522): > 100 µM (inactive) | GI50 (OVCAR-5): > 100 µM (inactive) | GI50 (OVCAR-8): > 100 µM (inactive) | GI50 (RPMI-8226): > 100 µM (inactive) | GI50 (SF-268): > 100 µM (inactive) | GI50 (SK-MEL-28): > 100 µM (inactive) | GI50 (SK-MEL-2): > 100 µM (inactive) | GI50 (SNB-75): > 100 µM (inactive) | GI50 (SR): > 100 µM (inactive) | GI50 (UACC-257): > 100 µM (inactive) | GI50 (UACC-62): > 100 µM (inactive)

Nc1nc(O)c2nc(CNc3ccc(C(=O)NC(CCC(=O)O)C(=O)O)cc3)cnc2n1 (configuration not stated)
GI50 (786-0): > 100 µM (inactive) | GI50 (HT-29): > 100 µM (inactive) | GI50 (K562): > 100 µM (inactive) | GI50 (MDA-MB-435): > 100 µM (inactive) | GI50 (NCI-H522): > 100 µM (inactive) | GI50 (OVCAR-5): > 100 µM (inactive) | GI50 (OVCAR-8): > 100 µM (inactive) | GI50 (RPMI-8226): > 100 µM (inactive) | GI50 (SF-268): > 100 µM (inactive) | GI50 (SK-MEL-28): > 100 µM (inactive) | GI50 (SK-MEL-2): > 100 µM (inactive) | GI50 (SNB-75): 0.9 µM (active) | GI50 (SR): > 100 µM (inactive) | GI50 (UACC-257): > 100 µM (inactive) | GI50 (UACC-62): > 100 µM (inactive)

From ChEMBL document CHEMBL1201862, “PubChem BioAssay data set” (2004)
